Counter-ions that a name gives are not always drawn.
Target: CK2A1 (CK2α/β) (Homo sapiens, UniProt P68400)
Experiment: CK2 kinase assay, CK2A1 (CK2α/β)
Assay type: biochemical
Details: Table A; read-out: CK2A1 (CK2α/β) (IC50)

CK2A1 (CK2α/β), sequence (P68400 whole entry, species assumed): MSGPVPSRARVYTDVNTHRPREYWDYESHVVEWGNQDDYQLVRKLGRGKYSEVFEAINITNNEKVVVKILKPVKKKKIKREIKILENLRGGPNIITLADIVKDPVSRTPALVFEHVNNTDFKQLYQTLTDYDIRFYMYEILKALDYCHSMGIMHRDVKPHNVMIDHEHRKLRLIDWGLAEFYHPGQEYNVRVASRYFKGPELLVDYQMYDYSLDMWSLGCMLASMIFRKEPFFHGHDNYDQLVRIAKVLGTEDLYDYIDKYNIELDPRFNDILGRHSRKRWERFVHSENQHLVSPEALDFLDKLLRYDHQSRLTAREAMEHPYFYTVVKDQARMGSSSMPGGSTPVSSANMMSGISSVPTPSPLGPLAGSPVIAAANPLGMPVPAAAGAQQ
CK2A1 (CK2α/β), sequence (P67870 whole entry partner, species assumed): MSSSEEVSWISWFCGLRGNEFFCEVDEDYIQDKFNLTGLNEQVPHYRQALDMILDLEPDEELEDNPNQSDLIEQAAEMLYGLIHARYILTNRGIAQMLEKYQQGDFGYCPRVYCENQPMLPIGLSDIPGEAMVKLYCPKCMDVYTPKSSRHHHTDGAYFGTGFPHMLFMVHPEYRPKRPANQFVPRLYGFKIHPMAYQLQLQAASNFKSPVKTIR

Structure (SMILES)	IC50 [nM]
N#Cc1cc(Nc2nc(NC3CC3)c3ncc(C#N)n3n2)c(F)c(N2CCN(C3(C#N)COC3)CC2)c1 [Example 555, 2-((5-cyano-3-(4-(3-cyanooxetan-3-yl)piperazin-1-yl)-2-fluorophenyl)amino)-4-(cyclopropylamino)imidazo[2,1-f][1,2,4]triazine-7-carbonitrile]	1.23
N#CCC(=O)N1CCC(c2cc(C#N)cc(Nc3nc(NC4CC4)c4ncc(C#N)n4n3)c2Cl)CC1 [Example 230, 2-((2-chloro-5-cyano-3-(1-(cyanoacetyl)-4-piperidinyl)phenyl)amino)-4-(cyclopropylamino)imidazo[2,1-f][1,2,4]triazine-7-carbonitrile]	1.04
CCNc1nc(Nc2cc(C#N)cc(N3CC[C@@H](NC(=O)OC)[C@H](OC(=O)[C@@H](NC(=O)[C@@H](N)CCCCN)C(C)C)C3)c2Cl)nn2c(C#N)cnc12 [Example 822, (S)-(3R,4R)-1-(2-chloro-5-cyano-3-((7-cyano-4-(ethylamino)imidazo[2,1-f][1,2,4]triazin-2-yl)amino)phenyl)-4-((methoxycarbonyl)amino)piperidin-3-yl 2-((S)-2,6-diaminohexanamido)-3-methylbutanoate dihydrochloride]	1.74
N#Cc1cc(Nc2nc(NC3CC3)c3ncc(C#N)n3n2)c(Cl)c(N2CCN3CC[C@H](O)[C@H]3C2)c1 (racemic) [Example 438, (+/−)-2-((2-chloro-5-cyano-3-((8R,8aS)-8-hydroxyhexahydropyrrolo[1,2-a]pyrazin-2(1H)-yl)phenyl)amino)-4-(cyclopropylamino)imidazo[2,1-f][1,2,4]triazine-7-carbonitrile]	0.73
CC(CC(C)N1CC(C)(O)C1)c1cc(Cl)c(Nc2nc(NC3CC3)c3ncc(C#N)n3n2)cc1C#N (stereo not shown) [Example 736, 2-({2-chloro-5-cyano-4-[4-(3-hydroxy-3-methylazetidin-1-yl)pentan-2-yl]phenyl}amino)-4-(cyclopropylamino)imidazo [2,1-f][1,2,4]triazine-7-carbonitrile]	4.86
N#Cc1cc(Nc2nc(NC3CC3)c3ncc(C#N)n3n2)c(Cl)c(N2CCOC(C(=O)N3CCOCC3)C2)c1 (racemic) [Example 300, (+/−)2-((2-chloro-5-cyano-3-(2-(morpholine-4-carbonyl)morpholino)phenyl)amino)-4-(cyclopropylamino)imidazo[2,1-J][1,2,4]triazine-7-carbonitrile]	1.62
CCNc1nc(Nc2cc(C#N)cc(N3CC(N4CCN(C)CC4)C3)c2Cl)nn2c(C#N)cnc12 [Example 360, 2-((2-chloro-5-cyano-3-(3-(4-methylpiperazin-1-yl)azetidin-1-yl)phenyl)amino)-4-(ethylamino)imidazo[2,1-f][1,2,4]triazine-7-carbonitrile]	0.73
CN(CCNC1COC1)c1cc(C#N)cc(Nc2nc(NC3CC3)c3ncc(C#N)n3n2)c1Cl [Example 51, 2-((2-chloro-5-cyano-3-(methyl(2-(3-oxetanylamino)ethyl)amino)phenyl)amino)-4-(cyclopropylamino)imidazo [2,1-f][1,2,4]triazine-7-carbonitrile]	2.47
N#Cc1cc(Nc2nc(NC3CC3)c3ncc(C#N)n3n2)c(Cl)c(N2CCC3C(CCN3C3COC3)C2)c1 (stereo not shown) [Example 444, 2-((2-chloro-5-cyano-3-(1-(oxetan-3-yl)hexahydro-1H-pyrrolo[3,2-c]pyridin-5(6H)-yl)phenyl)amino)-4-(cyclopropylamino)imidazo[2,1-f][1,2,4]triazine-7-carbonitrile]	0.76
CN1CC2CN(c3cc(C#N)cc(Nc4nc(NC5CC5)c5ncc(C#N)n5n4)c3Cl)CC2C1 (stereo not shown) [Example 461, 2-((2-chloro-5-cyano-3-(5-methylhexahydropyrrolo[3,4-c]pyrrol-2(1H)-yl)phenyl)amino)-4-(cyclopropylamino)imidazo[2,1-f][1,2,4]triazine-7-carbonitrile]	2.46
N#Cc1cnc2c(NC3CC3)nc(Nc3cc(C(F)F)cc(N4CC(NCC(O)CO)C4)c3Cl)nn12 (racemic) [Example 261, (+/−) 2-((2-chloro-5-(difluoromethyl)-3-(3-((2,3-dihydroxypropyl)amino)-1-azetidinyl)phenyl)amino)-4-(cyclopropylamino)imidazo[2,1-f][1,2,4]triazine-7-carbonitrile]	2.44
CCNc1nc(Nc2cc(C#N)cc(N3CCN(C4CN(C(=O)OC)C4)CC3)c2Cl)nn2c(C#N)cnc12 [Example 101, methyl 3-(4-(2-chloro-5-cyano-3-((7-cyano-4-(ethylamino)imidazo [2,1-f][1,2,4]triazin-2-yl)amino)phenyl)-1-piperazinyl)-1-azetidinecarboxylate]	1.27
COC(=O)Nc1cc(Nc2nc(NC3CC3)c3ncc(C#N)n3n2)c(Cl)c(C2CCN(C)CC2)c1 [Example 397, Methyl-4-chloro-3-(7-cyano-4-(cyclopropylamino)imidazo[1,2-f][1,2,4]triazin-2-ylamino)-5-(1-methylpiperidin-4-yl)phenylcarbamate]	1.8
CCNc1nc(Nc2cc(C#N)cc(N3CC[C@@H](NC(=O)OC)[C@@H](NCC(O)C(F)(F)F)C3)c2Cl)nn2c(C#N)cnc12 (stereo partly drawn) [Example 761, methyl N-[(3S,4R)-1-(2-chloro-5-cyano-3-{[7-cyano-4-(ethylamino)imidazo[2,1-f][1,2,4]triazin-2-yl]amino}phenyl)-3-[(3,3,3-trifluoro-2-hydroxypropyl)amino]piperidin-4-yl]carbamate]	10
N#Cc1cc(Nc2nc(NC3CC3)c3ncc(C#N)n3n2)c(Cl)c(N2CC[C@@H](N)C2)c1 [Example 46, (R)-2-(3-(3-aminopyrrrolidin-1-yl)-2-chloro-5-cyanophenylamino)-4-(cyclopropylamino)imidazo [1,2-f][1,2,4]triazine-7-carbonitrile]	1.31
N#Cc1cc(Nc2nc(NC3CC3)c3ncc(C#N)n3n2)c(Cl)c(C2CCN(C3CN(C(=O)C(F)(F)F)C3)CC2)c1 [Example 638, 2-((2-chloro-5-cyano-3-(1-(1-(2,2,2-trifluoroacetyl)azetidin-3-yl)piperidin-4-yl)phenyl)amino)-4-(cyclopropylamino)imidazo[2,1-f][1,2,4]triazine-7-carbonitrile]	0.8
CCNc1nc(Nc2cc(C#N)cc(C3CCN(C(C)C(N)=O)CC3)c2Cl)nn2c(C#N)cnc12 (racemic) [Example 640, (+/−)-2-(4-(2-chloro-5-cyano-3-((7-cyano-4-(ethylamino)imidazo[2,1-f][1,2,4]triazin-2-yl)amino)phenyl)piperidin-1-yl)propanamide]	2.22
CC(=O)N1CCN(c2cc(C#N)cc(Nc3nc(NC4CC4)c4ncc(C#N)n4n3)c2Cl)CC1 [Example 85, 2-((3-(4-acetyl-1-piperazinyl)-2-chloro-5-cyanophenyl)amino)-4-(cyclopropylamino) imidazo[2,1-fl][1,2,4] triazine-7-carbonitrile]	0.57
COCCN(C)CC1CN(c2cc(C#N)cc(Nc3nc(NC4CC4)c4ncc(C#N)n4n3)c2Cl)CCO1 (stereo not shown) [Example 702, 2-{[2-chloro-5-cyano-3-(2-{[(2-methoxyethyl)(methyl)amino]methyl}morpholin-4-yl)phenyl]amino}-4-(cyclopropylamino)imidazo[2,1-f][1,2,4]triazine-7-carbonitrile]	2.48

Reference: patent US9273057B2 (Bristol-Myers Squibb Company, priority 2012, dated 2016)
